Patent publication US9067914B1, “Tropomyosin-related kinase (TRK) inhibitors” (Genzyme Corporation, priority 2013, dated 2015)

Tests used:
TrkB = TrkB (Homo sapiens (Human), UniProt Q16620); experiment: TrkB activity, off-chip mobility shift assay (LabChip 3000); type: biochemical; details: 70 μM ATP (ATP Km); n/d = none detected
Description: (§1) Reagents and consumables were purchased from Sigma Aldrich, Carna Biosciences, or Caliper Life Sciences. All assay reaction conditions for IC50 determinations were within the linear range with respect to time and enzyme concentration. […] The LabChip 3000 separates and measures the fluorescent signal of fluorescein labeled peptide substrate and fluorescein labeled peptide product present in each well. Results are expressed as percent conversion by measuring peak height for both the substrate and product and dividing the product peak height by the sum of peak heights for both substrate and product.

TrkA = TrkA (Homo sapiens (Human), UniProt P04629); experiment: TrkA activity, off-chip mobility shift assay (LabChip 3000); type: biochemical; details: 55 μM ATP (ATP Km); n/d = none detected
Description: as §1

Chain of TrkB (Q16620 32-822): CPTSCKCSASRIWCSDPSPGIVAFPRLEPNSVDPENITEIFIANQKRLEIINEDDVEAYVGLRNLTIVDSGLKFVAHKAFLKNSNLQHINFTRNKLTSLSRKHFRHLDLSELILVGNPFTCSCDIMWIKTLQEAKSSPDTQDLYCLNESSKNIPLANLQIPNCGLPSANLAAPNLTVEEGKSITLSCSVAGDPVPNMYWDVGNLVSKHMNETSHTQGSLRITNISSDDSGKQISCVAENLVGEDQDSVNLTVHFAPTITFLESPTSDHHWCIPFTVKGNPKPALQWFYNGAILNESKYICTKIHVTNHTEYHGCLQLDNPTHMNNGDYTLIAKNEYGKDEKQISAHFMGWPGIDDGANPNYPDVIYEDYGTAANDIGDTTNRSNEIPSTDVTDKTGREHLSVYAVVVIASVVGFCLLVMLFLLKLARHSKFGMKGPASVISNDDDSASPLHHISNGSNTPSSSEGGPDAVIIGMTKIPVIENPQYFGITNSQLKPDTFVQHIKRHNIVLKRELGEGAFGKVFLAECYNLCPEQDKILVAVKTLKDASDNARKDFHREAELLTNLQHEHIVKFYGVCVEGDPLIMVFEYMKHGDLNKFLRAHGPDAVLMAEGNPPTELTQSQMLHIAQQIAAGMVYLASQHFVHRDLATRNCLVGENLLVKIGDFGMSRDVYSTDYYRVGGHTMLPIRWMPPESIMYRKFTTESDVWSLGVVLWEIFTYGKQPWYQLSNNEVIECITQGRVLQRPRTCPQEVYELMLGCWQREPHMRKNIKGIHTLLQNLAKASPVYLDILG
Chain of TrkA (P04629 33-796): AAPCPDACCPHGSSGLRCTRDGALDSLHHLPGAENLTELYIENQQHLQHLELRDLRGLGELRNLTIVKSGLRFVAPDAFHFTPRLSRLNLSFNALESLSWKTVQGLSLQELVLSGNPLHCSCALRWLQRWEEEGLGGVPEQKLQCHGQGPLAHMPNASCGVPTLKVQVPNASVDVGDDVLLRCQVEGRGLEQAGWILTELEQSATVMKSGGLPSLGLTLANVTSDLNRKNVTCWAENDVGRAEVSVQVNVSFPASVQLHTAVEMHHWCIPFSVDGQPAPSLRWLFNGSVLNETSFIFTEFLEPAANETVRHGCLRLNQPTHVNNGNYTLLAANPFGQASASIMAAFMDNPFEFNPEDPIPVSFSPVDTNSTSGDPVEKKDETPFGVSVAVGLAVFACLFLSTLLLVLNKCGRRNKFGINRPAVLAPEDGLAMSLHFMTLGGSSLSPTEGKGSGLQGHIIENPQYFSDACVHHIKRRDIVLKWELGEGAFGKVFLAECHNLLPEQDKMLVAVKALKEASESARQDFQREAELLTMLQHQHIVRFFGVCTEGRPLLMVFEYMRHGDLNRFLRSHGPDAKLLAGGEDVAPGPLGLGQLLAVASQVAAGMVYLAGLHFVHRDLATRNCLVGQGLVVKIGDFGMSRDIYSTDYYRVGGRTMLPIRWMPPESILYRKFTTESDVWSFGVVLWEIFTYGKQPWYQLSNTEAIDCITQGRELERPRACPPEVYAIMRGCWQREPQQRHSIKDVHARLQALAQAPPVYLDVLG

## COc1cc(Cn2c(N)nc3cc(-c4cnn(C)c4)cnc32)ccc1OCc1ccc(C2CC2)nc1 [Ex. 3-35-4, 3-(4-((6-cyclopropylpyridin-3-yl)methoxy)-3-methoxybenzyl)-6-(1-methyl-1H-pyrazol-4-yl)-3H-imidazo[4,5-b]pyridin-2-amine]
TrkB
  IC50: 0.2 nM
TrkA
  IC50: 0.2 nM

## COc1cc(Cn2c(N)nc3cc(-c4cnn(C)c4)cnc32)ccc1OCc1csc(C)n1 [Ex. 3-35-5, 3-(3-methoxy-4-((2-methylthiazol-4-yl)methoxy)benzyl)-6-(1-methyl-1H-pyrazol-4-yl)-3H-imidazo[4,5-b]pyridin-2-amine]
TrkB
  IC50: 0.2 nM
TrkA
  IC50: 0.5 nM

## COc1ccc(COc2ccc(Cn3c(N)nc4cc(-c5ccccc5)cnc43)cc2OC)cn1 [Ex. 3-36, 3-(3-methoxy-4-((6-methoxypyridin-3-yl)methoxy)benzyl)-6-phenyl-3H-imidazo[4,5-b]pyridin-2-amine]
TrkB
  IC50: 4 nM
TrkA
  IC50: 6 nM

## COc1ccc(COc2ccc(Cn3c(N)nc4cc(-c5ccc(F)cc5)cnc43)cc2OC)cn1 [Ex. 3-37-1, 6-(4-fluorophenyl)-3-(3-methoxy-4-((6-methoxypyridin-3-yl)methoxy)benzyl)-3H-imidazo[4,5-b]pyridin-2-amine]
TrkB
  IC50: 4 nM
TrkA
  IC50: 9 nM

## COc1ccc(COc2ccc(Cn3c(N)nc4cc(-c5ccn(C)n5)cnc43)cc2OC)cn1 [Ex. 3-37-2, 3-(3-methoxy-4-((6-methoxypyridin-3-yl)methoxy)benzyl)-6-(1-methyl-1H-pyrazol-3-yl)-3H-imidazo[4,5-b]pyridin-2-amine]
TrkB
  IC50: 2 nM
TrkA
  IC50: 3 nM

## COc1ccc(COc2ccc(Cn3c(N)nc4cc(-c5cncnc5)cnc43)cc2OC)cn1 [Ex. 3-37-3, 3-(3-methoxy-4-((6-methoxypyridin-3-yl)methoxy)benzyl)-6-(pyrimidin-5-yl)-3H-imidazo[4,5-b]pyridin-2-amine]
TrkB
  IC50: 16 nM
TrkA
  IC50: 51 nM

## COc1ccc(COc2ccc(Cn3c(N)nc4cc(-c5c(C)nn(C)c5C)cnc43)cc2OC)cn1 [Ex. 3-37-4, 3-(3-methoxy-4-((6-methoxypyridin-3-yl)methoxy)benzyl)-6-(1,3,5-trimethyl-1H-pyrazol-4-yl)-3H-imidazo[4,5-b]pyridin-2-amine]
TrkB
  IC50: 13 nM
TrkA
  IC50: 14 nM

## COc1ccc(COc2ccc(Cn3c(N)nc4cc(-c5ccncc5)cnc43)cc2OC)cn1 [Ex. 3-37-5, 3-(3-methoxy-4-((6-methoxypyridin-3-yl)methoxy)benzyl)-6-(pyridin-4-yl)-3H-imidazo[4,5-b]pyridin-2-amine]
TrkB
  IC50: 0.7 nM
TrkA
  IC50: 2 nM

## COc1ccc(COc2ccc(Cn3c(N)nc4cc(-c5cccnc5)cnc43)cc2OC)cn1 [Ex. 3-37-6, 3-(3-methoxy-4-((6-methoxypyridin-3-yl)methoxy)benzyl)-6-(pyridin-3-yl)-3H-imidazo[4,5-b]pyridin-2-amine]
TrkB
  IC50: 2 nM
TrkA
  IC50: 5 nM

## COc1ccc(COc2ccc(Cn3c(N)nc4cc(-c5ccccn5)cnc43)cc2OC)cn1 [Ex. 3-38, 3-(3-methoxy-4-((6-methoxypyridin-3-yl)methoxy)benzyl)-6-(pyridin-2-yl)-3H-imidazo[4,5-b]pyridin-2-amine]
TrkB
  IC50: 2 nM
TrkA
  IC50: 4 nM

## COc1cc(Cn2c(N)nc3cc(-c4cnn(C)c4)cnc32)ccc1OCc1ccc(C(F)(F)C(F)(F)F)cc1 [Ex. 3-39, 3-(3-methoxy-4-((4-(perfluoroethyl)benzyl)oxy)benzyl)-6-(1-methyl-1H-pyrazol-4-yl)-3H-imidazo[4,5-b]pyridin-2-amine]
TrkB
  IC50: 0.6 nM
TrkA
  IC50: 0.3 nM

## COc1cc(Cn2c(N)nc3cc(-c4cnn(C)c4)cnc32)ccc1OCc1ccc(OC(F)(F)F)cc1 [Ex. 3-40-1, 3-(3-methoxy-4-((4-(trifluoromethoxy)benzyl)oxy)benzyl)-6-(1-methyl-1H-pyrazol-4-yl)-3H-imidazo[4,5-b]pyridin-2-amine]
TrkB
  IC50: 0.2 nM
TrkA
  IC50: 0.2 nM
